Experimental data taken from patent publication US7858644B2, “EP4 receptor antagonists” (Asterand UK Limited, priority 2003, dated 2010).

What was measured:
human EP4 receptor = biological target: T1, human EP4 receptor (Homo sapiens, UniProt P35408); experiment: Binding ability to human EP4 receptor ([3H]PGE2 displacement); conditions: read-out: pKi EP4 (converted)
T1 construct: expressed in transfected cells
Protocol: (§1) Membranes were prepared from cells stably transfected with human EP receptor cDNA. In brief, cells were cultured to confluency, scraped from culture flasks, and centrifuged (800 g, 8 minutes, 4° C.). Cells were twice washed in ice cold homogenisation buffer containing 10 mMTris-HCl, 1 mM EDTA. 2Na, 250 mM sucrose, 1 mM PMSF, 0.3 mM indomethacin, pH 7.4, homogenised and re-centrifuged as before. The supernatant was stored on ice and pellets re-homogenised and re-spun. Supernatants were pooled and centrifuged at 40000 g, 10 minutes, 4° C. Resultant membrane pellets were stored at −80° C. until use.
(§2) Incubations were performed at suitable temperatures and for suitable times to allow equilibrium to be reached. Non-specific binding was determined in the presence of 10 uM PGE2. Bound and free radiolabel was separated by vacuum manifold filtration using appropriate wash buffers, and bound radiolabel was determined by scintillation counting. Constituents of each of the buffers are included in table 1 below.
(§3) This approach follows that set out in Kenakin, T. P., Pharmacologic analysis of drug receptor interaction. Raven Press, New York, 2nd edition.

human EP2 receptor = biological target: T2, human EP2 receptor (Homo sapiens, UniProt P43116); experiment: Binding ability to human EP2 receptor ([3H]PGE2 displacement); conditions: read-out: pKi EP2 (converted)
T2 construct: expressed in transfected cells
T2 sequence (P43116 whole entry): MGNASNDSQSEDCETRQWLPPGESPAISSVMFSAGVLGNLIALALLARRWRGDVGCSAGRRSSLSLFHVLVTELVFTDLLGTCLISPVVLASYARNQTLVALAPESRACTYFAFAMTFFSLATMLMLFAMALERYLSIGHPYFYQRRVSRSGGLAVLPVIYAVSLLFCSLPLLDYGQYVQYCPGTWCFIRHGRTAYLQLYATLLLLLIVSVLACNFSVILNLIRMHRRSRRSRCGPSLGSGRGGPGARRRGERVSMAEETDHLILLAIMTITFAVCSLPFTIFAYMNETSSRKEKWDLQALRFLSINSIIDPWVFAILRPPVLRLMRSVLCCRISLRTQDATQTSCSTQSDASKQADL
Protocol: as §1
as §2, with “For assay, membranes expressing human EP4, EP3, EP2 or EP1 receptors were incubated in Millipore (MHVBN45) plates containing assay buffer, radiolabelled [^3H]PGE2 and 0.1 to 10 000 nM concentrations of compounds. Incubations” for “Incubations”
as §3

human EP3 receptor = biological target: T3, human EP3 receptor (Homo sapiens, UniProt P43115); experiment: Binding ability to human EP3 receptor ([3H]PGE2 displacement); conditions: membranes from cells stably transfected with human EP receptor cDNA; [3H]PGE2 2.5 nM; Cheng-Prusoff from IC50; read-out: pKi EP3 (converted)
T3 construct: expressed in transfected cells
T3 sequence (P43115 1-390): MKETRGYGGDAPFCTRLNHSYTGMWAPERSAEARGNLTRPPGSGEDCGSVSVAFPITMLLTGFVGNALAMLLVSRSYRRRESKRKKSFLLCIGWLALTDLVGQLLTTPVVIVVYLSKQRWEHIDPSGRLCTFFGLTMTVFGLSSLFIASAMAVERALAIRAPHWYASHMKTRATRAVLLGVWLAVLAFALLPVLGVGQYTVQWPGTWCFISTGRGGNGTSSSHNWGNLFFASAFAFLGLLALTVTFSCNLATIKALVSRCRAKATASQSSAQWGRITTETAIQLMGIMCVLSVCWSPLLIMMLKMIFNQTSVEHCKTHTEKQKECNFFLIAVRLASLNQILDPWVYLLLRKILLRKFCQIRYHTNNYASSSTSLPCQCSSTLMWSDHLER
Protocol: as §1
as §2, with “For assay, membranes expressing human EP4, EP3, EP2 or EP1 receptors were incubated in Millipore (MHVBN45) plates containing assay buffer, radiolabelled [^3H]PGE2 and 0.1 to 10 000 nM concentrations of compounds. Incubations” for “Incubations”
as §3

T1 sequence (P35408 whole entry): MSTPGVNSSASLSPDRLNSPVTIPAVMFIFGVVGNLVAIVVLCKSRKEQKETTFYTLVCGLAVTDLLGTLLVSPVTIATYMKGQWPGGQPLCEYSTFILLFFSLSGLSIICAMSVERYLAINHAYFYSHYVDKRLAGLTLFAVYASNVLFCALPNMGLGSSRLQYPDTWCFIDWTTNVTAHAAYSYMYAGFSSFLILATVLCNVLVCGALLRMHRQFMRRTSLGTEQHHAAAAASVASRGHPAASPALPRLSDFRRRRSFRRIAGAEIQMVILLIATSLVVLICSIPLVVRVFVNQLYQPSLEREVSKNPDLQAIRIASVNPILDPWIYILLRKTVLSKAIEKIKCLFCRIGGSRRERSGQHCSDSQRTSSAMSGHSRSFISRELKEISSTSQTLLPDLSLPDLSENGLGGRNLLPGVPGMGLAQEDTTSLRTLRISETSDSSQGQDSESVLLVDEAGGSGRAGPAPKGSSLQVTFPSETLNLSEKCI

| Ki (human EP4 receptor) | Ki (human EP2 receptor) | Ki (human EP3 receptor) | SMILES |
| --- | --- | --- | --- |
| < 1 µM | > 3.16 µM | > 10 µM | Cc1oc(CCC(=O)NS(=O)(=O)c2ccccc2)cc1COc1ccc(-c2ccccc2)cc1 [Compound 38, N-{3-[4-(Biphenyl-4-yloxymethyl)-5-methyl-furan-2-yl]-propionyl}-benzene sulfonamide] |
| < 0.1 µM | > 10 µM | > 10 µM | COc1ccc(-c2ccc(OCc3cc(CCC(=O)O)oc3C)cc2)cc1 [Compound 39, 3-[4-(4′-Methoxy-biphenyl-4-yloxymethyl)-5-methyl-furan-2-yl]-propionic acid] |
| < 0.316 µM | > 10 µM | > 10 µM | Cc1oc(C(=O)O)cc1CNc1ccc(-c2ccc(OC(F)F)cc2)cc1 [Compound 171, 4-(4′-Difluoromethoxy-biphenyl-4-ylaminomethyl)-5-methyl-furan-2-carboxylic acid] |
| < 10 µM | > 10 µM | > 10 µM | Cc1oc(C(=O)O)cc1COc1ccc(-c2ccc(N(C)C)cc2)cc1 [Compound 113, 4-(4′-Dimethylamino-biphenyl-4-yloxymethyl)-5-methyl-furan-2-carboxylic acid] |
| < 0.1 µM | > 10 µM | > 10 µM | COc1ccc(-c2ccc(OCc3cc(/C=C/C(=O)O)oc3C)cc2)cc1 [Compound 43, 3-[4-(4′-Methoxy-biphenyl-4-yloxymethyl)-5-methyl-furan-2-yl]-acrylic acid] |
| < 3.16 µM | > 10 µM | > 10 µM | CSc1ccc(-c2ccc(OCc3cc(C(=O)O)oc3C)cc2)cc1 [Compound 111, 5-Methyl-4-(4′-methylsulphanyl-biphenyl-4-yloxymethyl)-furan-2-carboxylic acid] |
| < 1 µM | > 3.16 µM | > 10 µM | Cc1oc(C(=O)O)cc1COc1ccc(-c2ccccc2Cl)cc1 [Compound 99, 4-(2′-Chloro-biphenyl-4-yloxymethyl)-5-methyl-furan-2-carboxylic acid] |
| < 3.16 µM | > 10 µM | > 10 µM | Cc1oc(C(=O)O)cc1COc1ccc(-c2cccc(O)c2)cc1 [Compound 112, 4-(3′-Hydroxy-biphenyl-4-yloxymethyl)-5-methyl-furan-2-carboxylic acid] |
| < 3.16 µM | > 10 µM | > 10 µM | CSc1ccccc1-c1ccc(OCc2cc(C(=O)O)oc2C)cc1 [Compound 105, 5-Methyl-4-(2′-methylsulfanyl-biphenyl-4-yloxymethyl)-furan-2-carboxylic acid] |
| < 3.16 µM | > 10 µM | > 10 µM | COc1ccc(-c2ccc(OCc3cc(C(=O)O)oc3C)cc2)c(OC)c1 [Compound 140, 4-(2′,4′-Dimethoxy-biphenyl-4-yloxymethyl)-5-methyl-furan-2-carboxylic acid] |
| < 0.316 µM | > 10 µM | > 10 µM | Cc1oc(C(=O)O)cc1CN(C)c1ccc(-c2ccc(OC(F)F)cc2)cc1 [Compound 176, 4-{[(4′-Difluoromethoxy-biphenyl-4-yl)-methyl-amino]-methyl}-5-methyl-furan-2-carboxylic acid] |
| < 0.316 µM | > 10 µM | > 10 µM | COc1ccc(-c2ccc(OCc3coc(C(=O)O)c3)cc2)cc1 [Compound 80, 4-(4′-Methoxy-biphenyl-4-yloxymethyl)-furan-2-carboxylic acid] |
| < 1 µM | > 10 µM | > 10 µM | COc1ccc(-c2ccc(OCc3cc(C(=O)O)oc3C(C)C)cc2)cc1 [Compound 86, 5-Isopropyl-4-(4′-methoxy-biphenyl-4-yloxymethyl)-furan-2-carboxylic acid] |
| < 3.16 µM | > 10 µM | > 10 µM | CC(=O)c1cccc(-c2ccc(OCc3cc(C(=O)O)oc3C)cc2)c1 [Compound 117, 4-(3′-Acetyl-biphenyl-4-yloxymethyl)-5-methyl-furan-2-carboxylic acid] |
| < 3.16 µM | > 10 µM | > 10 µM | Cc1oc(C(=O)O)cc1COc1ccc(-c2c(F)cccc2F)cc1 [Compound 100, 4-(2′,6′-Difluoro-biphenyl-4-yloxymethyl)-5-methyl-furan-2-carboxylic acid] |
| < 1 µM | > 10 µM | > 10 µM | Cc1oc(C(=O)O)cc1COc1ccc(-c2ccc(F)cc2)cc1 [Compound 118, 4-(4′-Fluoro-biphenyl-4-yloxymethyl)-5-methyl-furan-2-carboxylic acid] |

Second part, the compound before the results:

| SMILES | Ki (human EP4 receptor) | Ki (human EP2 receptor) | Ki (human EP3 receptor) |
| --- | --- | --- | --- |
| O=C(O)c1cc(COc2ccc3c(c2)oc2ccccc23)c(C(F)(F)F)o1 [Compound 95, 4-(Dibenzofuran-3-yloxymethyl)-5-trifluoromethyl-furan-2-carboxylic acid] | < 3.16 µM | > 3.16 µM | > 10 µM |
| Cc1oc(S(=O)(=O)NC(=O)Cc2ccccc2)cc1COc1ccc(-c2ccccc2)cc1 [Compound 62, 4-(Biphenyl-4-yloxymethyl)-5-methyl-furan-2-sulphonic acid phenylacetyl-amide] | < 0.1 µM | > 10 µM | > 10 µM |
| COc1ccc(-c2ccc(OCc3cc(C(=O)NS(=O)(=O)c4ccccc4)oc3C)cc2)c(OC)c1 [Compound 141, N-[4-(2′,4′-Dimethoxy-biphenyl-4-yloxymethyl)-5-methyl-furan-2-carbonyl]-benzenesulphonamide] | < 0.316 µM | > 10 µM | > 10 µM |
| Cc1oc(C(=O)NS(=O)(=O)c2ccccc2)cc1CNc1ccc(-c2ccc(OC(F)F)cc2)cc1 [Compound 172, N-{4-[(4′-Difluoromethoxy-biphenyl-4-ylamino)-methyl]-5-methyl-furan-2-carbonyl}-benzenesulphonamide] | < 0.01 µM | > 10 µM | > 10 µM |
| Cc1ccccc1S(=O)(=O)NC(=O)c1cc(CN(C)c2ccc(-c3ccc(OC(F)F)cc3)cc2)c(C)o1 [Compound 177, N-(4-{[(4′-Difluoromethoxy-biphenyl-4-yl)-methyl-amino]-methyl}-5-methyl-furan-2-carbonyl)-2-methyl-benzenesulfonamide] | < 0.0316 µM | > 10 µM | > 10 µM |
| Cc1noc(C)c1C(=O)NS(=O)(=O)c1cc(COc2ccc(-c3ccccc3)cc2)c(C)o1 [Compound 63, 4-(Biphenyl-4-yloxymethyl)-5-methyl-furan-2-sulphonic acid (3,5-dimethyl-isoxazole-4-carbonyl)-amide] | < 0.316 µM | > 10 µM | > 10 µM |
| Cc1ccccc1S(=O)(=O)NC(=O)c1cc(C[S+]([O-])c2ccc(-c3ccc(OC(F)F)cc3)cc2)c(C)o1 (stereo not drawn) [Compound 156, N-[4-(4′-Difluoromethoxy-biphenyl-4-ylsulphinylmethyl)-5-methyl-furan-2-carbonyl]-2-methyl-benzenesulphonamide] | < 10 µM | > 10 µM | > 10 µM |
| Cc1oc(C(=O)NS(=O)(=O)c2ccccc2)cc1CSc1ccc(-c2ccc(OC(F)F)cc2)cc1 [Compound 155, N-[4-(4′-Difluoromethoxy-biphenyl-4-ylsulphanylmethyl)-5-methyl-furan-2-carbonyl]-benzenesulphonamide] | < 1 µM | > 3.16 µM | > 3.16 µM |
| COc1ccc(-c2ccc(OCc3cc(C(=O)NS(=O)(=O)c4ccccc4)oc3C)cc2)[n+]([O-])c1 [Compound 135, N-{4-[4-(5-Methoxy-1-oxy-pyridin-2-yl)-phenoxymethyl]-5-methyl-furan-2-carbonyl}-benzenesulphonamide] | < 10 µM | > 10 µM | > 10 µM |
| Cc1oc(-c2nnn[nH]2)cc1COc1ccc(-c2ccccc2)cc1 [Compound 149, 5-[4-(Biphenyl-4-yloxymethyl)-5-methyl-furan-2-yl]-1H-tetrazole] | < 0.1 µM | > 10 µM | > 10 µM |
| Cc1oc(C(=O)O)cc1COc1ccc(-c2ccccc2C(F)(F)F)cc1 [Compound 102, 5-Methyl-4-(2′-trifluoromethyl-biphenyl-4-yloxymethyl)-furan-2-carboxylic acid] | < 3.16 µM | > 3.16 µM | > 10 µM |
| COc1ccc(-c2cccc(OCc3cc(C(=O)O)oc3C)c2)cc1OC [Compound 108, 4-(3′,4′-Dimethoxy-biphenyl-3-yloxymethyl)-5-methyl-furan-2-carboxylic acid] | < 3.16 µM | > 10 µM | > 10 µM |
